Laboratory results published in US9078907B2, “Immunoregulator compounds” (Universita Degli Studi Di Roma “Tor Vergata”, priority 2001, dated 2015).

What was measured:
macrophages = assay: ROI generation by dichlorofluorescein (DCF) flow cytometry; assay type: cell-based, human
Procedure: Because dichloro fluorescein (DCF) is a fluorochrome obtained from reaction of non fluorescent 2, 7-dichloro fluorescein diacetate (DCFH) with various oxidants, analysis thereof is used to detect cellular oxidative stress and amount of oxygen reactive intermediates (ROI) produced by phagocytic cells. In the used model, this analysis is employed in order to monitor the D-erythro-sphingosine 1-phosphate (S1P) modulated ROI production from macrophages. Macrophages were incubated for 90 minutes with sphingosine 1-phosphate at 0.5 μM, 5 μM, 10 μM and 50 μM concentrations. After the incubation 100 μl of 0.4 μM DCFH (Calbiochem) were added and incubated for at least 30 minutes. Finally, cells were washed with PBS and analysed using FACScan flow cytometer from Becton Dickinson.

Mycobacterium smegmatis = assay: Colony forming units of M. smegmatis in differentiated THP-1 cells; assay type: cell-based; details: THP-1 macrophage cell line, MOI 50:1, 5 μM, 1, 12 and 24 hours
Procedure: Human monocytic THP-1 leukemia line cells were used in this example as a model for macrophage response. In order to obtain macrophage phenotype, 5×10^5/ml THP-1 cells were induced to differentiate by 48 hours incubation in the presence of 20 ng/ml Phorbol Myristate Acetate (PMA). Differentiated THP-1 cells (dTHP-1) were then centrifuged three times and suspended in complete medium [RPMI 1640 (Gibco BRL) supplemented with 10% fetal bovine serum (Gibco BRL), 5 mM L-glutamine (Invitrogen), 1 mM sodium pyruvate (Gibco BRL) and non-essential amino acids (Euroclone)]. dTHP-1 were then infected for 3 hours with M. smegmatis at the multiplicity of infection of bacterium/cell 50:1. Following infection cells were washed three times with RPMI 1640 and incubated in complete medium at 37° C. for further 1, 12 and 24 hours in the presence or absence of sphingosine-1 phosphate used at the concentration of 5 μM.
In order to assess the role of macrophage PLD activity in sphingosine 1-phosphate induced mycobacterial growth control, following the infection the cells were cultured in the presence of various concentrations of ethanol (0.3%, 0.03%, 0.003%) or 10 nM calphostin C. […] Inhibiting activity of calphostin C is exploited by targeting PLD catalytic domain (Sciorra V. A., Hammond S. M., Morris A. J. Potent direct inhibition of mammalian phospholipase D isoenzymes by calphostin c. Biochemistry 2001; 40: 2640-46). Just after the infection and at the indicated time points, cells were 1) lysed using cold PBS containing 0.1% saponin (Sigma, MA, USA), ii) serially diluted in PBS containing 0.01% Tween-80 (Merck, Darmstadt, Germany) and iii) plated in triplicate in Middlebrook 7H10 medium (Becton Dickinson, MD, USA) supplemented with 10% OADC formulation (0.5 mg/ml oleic acid, 50 mg/ml albumin, 20 mg/ml dextrose, 0.04 mg/ml catalase and 8.5 mg/ml sodium chloride). M. smegmatis colonies were enumerated after incubation for 3 days at 37° C.

H37Rv MTB = assay: Mycobacterial viability (CFU) in MTB infected monocyte derived macrophages; assay type: cell-based, Mycobacterium tuberculosis; details: MTB MOI 1:1, S1P 5 μM, 5 days after the infection, statistically significant
Procedure: In order to evaluate the bacterial viability, monocyte derived macrophages were infected for 3 hours with MTB at 1:1 macrophage/bacterium infection ratio and then treated with S1P (5 μM). At time 0(just after infection) and after 2 and 5 days the plates containing infected cellular cultures were centrifuged at 2000 RPM for 10 minutes and the supernatant was discarded. Then 1 ml PBS and 0.1% saponin were added to each well and the contents were incubated for 20 minute at 37° C. After incubation cellular lysates were sonicated for 20 seconds in such a way to break any possible bacterial aggregates. Lysates thus obtained were diluted in sterile saline 1:100, 1:1000, 1:10000 with addition of 0.01% Tween 80 and plated on Middlebrook 7H10 (Difco). Plates were incubated at 37° C. for about one month and colonies enumerated.
Based on the observations about the possible antimicrobial role of PLD and S1P during Mycobacterium tuberculosis infection it was investigated whether S1P macrophage exogenous stimulation and PLD activation were associated to a reduction of mycobacterial viability. To that object, monocytes were infected for three hours with H37Rv MTB at a multiplicity of infection of 1 bacillus for 1 cell. […]

Question: Which “ROI production by macrophages over the time” value (macrophages; 5 μM S1P, DCF positive response after 30 and 90 minutes) does the source give for `CCCCCCCCCCCCC/C=C/[C@@H](O)[C@@H](N)COP(=O)(O)O` [S1P, D-erythro-sphingosine 1-phosphate] here?
Answer: The value was “increases progressively over the time”.

Question: What about the “S1P dose giving maximum DCF positive response” value (macrophages; scalar S1P doses, % DCF positive cells) of the same compound?
Answer: Its value is 5-10 μm.

Question: And the “intracellular replication of Mycobacterium smegmatis (CFU)” value (Mycobacterium smegmatis)?
Answer: Its value is “inhibits”.

Question: What about the “CFU number after S1P treatment” value (H37Rv MTB) of the same compound?
Answer: The value was “reduced”.
